Holding throughout (assay): relative viability (nuclei count vs DMSO), 5 days (fraction); higher = more cells survive
Compound in experiment [1]: COC1=CC=C(C=C1)CN2C=CC3=C2C=C(C=C3)C(=O)NO + CS(=O)(=O)CCNCc1ccc(-c2ccc3ncnc(Nc4ccc(OCc5cccc(F)c5)c(Cl)c4)c3c2)o1 [Lapatinib] (partner 2 µM)
The method, boiled down: (§1)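 Each reported value is a median over duplicate plates. It expresses relative viability: treated-well nuclei count divided by vehicle-well nuclei count. Lung cancer cell lines in 1536-well plates were dosed by pin tool a day after seeding, alone with one drug or with a fixed anchor-drug dose plus five library-drug doses (not always all listed) in √10 steps, and nuclei were counted after 5 days.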

Compound in the experiment “Veliparib + Luminespib”: C[C@]1(c2nc3c(C(N)=O)cccc3[nH]2)CCCN1 [Veliparib] + CCNC(=O)c1noc(-c2cc(C(C)C)c(O)cc2O)c1-c1ccc(CN2CCOCC2)cc1 [Luminespib] (partner 0.01 µM)
The method, boiled down: as §1

Compound in the experiment “Veliparib + Palbociclib”: C[C@]1(c2nc3c(C(N)=O)cccc3[nH]2)CCCN1 [Veliparib] + CC(=O)c1c(C)c2cnc(Nc3ccc(N4CCNCC4)cn3)nc2n(C2CCCC2)c1=O [Palbociclib] (partner 0.5 µM)
The method in brief:
as §1

Compound in the experiment “Veliparib + Phenformin”: C[C@]1(c2nc3c(C(N)=O)cccc3[nH]2)CCCN1 [Veliparib] + N=C(N)NC(=N)NCCc1ccccc1 [Phenformin] (partner 250 µM)
The method in brief:
as §1

Turning to RERF-LC-KJ, the relative viability in experiment [1] (first compound 0.08 µM) turned out to be 0.428; in experiment [1] (first compound 0.253 µM) it was 0.881; in experiment [1] (first compound 0.8 µM) it was 0.924; in experiment [1] (first compound 2.53 µM), 0.95; in experiment [1] (first compound 8 µM), 0.869; with Veliparib + Luminespib (first compound 0.02 µM), 1.26. The relative viability was determined as 1.25 with Veliparib + Luminespib (first compound 0.06325 µM); 1.2 with Veliparib + Luminespib (first compound 0.2 µM); 1.21 with Veliparib + Luminespib (first compound 0.6325 µM); 1.29 with Veliparib + Luminespib (first compound 2 µM); 1.07 in the experiment with Veliparib + Palbociclib (first compound 0.02 µM); 1.03 in the experiment with Veliparib + Palbociclib (first compound 0.06325 µM). Further, the relative viability with Veliparib + Palbociclib (first compound 0.2 µM) was 1.06; with Veliparib + Palbociclib (first compound 0.6325 µM), 1.09; with Veliparib + Palbociclib (first compound 2 µM), 1.13; with Veliparib + Phenformin (first compound 0.02 µM), 0.408; with Veliparib + Phenformin (first compound 0.06325 µM) it was 0.442; with Veliparib + Phenformin (first compound 0.2 µM), 0.4. The relative viability came to 0.396 in the experiment with Veliparib + Phenformin (first compound 0.6325 µM) and 0.47 with Veliparib + Phenformin (first compound 2 µM).

In the case of LK-2, the relative viability turned out to be 0.909 in experiment [1] (first compound 0.253 µM); 0.932 in experiment [1] (first compound 0.8 µM); 0.955 in experiment [1] (first compound 2.53 µM); 0.82 in experiment [1] (first compound 8 µM); 0.184 with Veliparib + Luminespib (first compound 0.06325 µM); 0.202 in the experiment with Veliparib + Luminespib (first compound 0.2 µM). For the same cell line, the relative viability in the experiment with Veliparib + Luminespib (first compound 0.6325 µM) was found to be 0.19; with Veliparib + Luminespib (first compound 2 µM), 0.193; in the experiment with Veliparib + Palbociclib (first compound 0.02 µM), 0.662; in the experiment with Veliparib + Palbociclib (first compound 0.06325 µM), 0.608; with Veliparib + Palbociclib (first compound 0.2 µM), 0.707; in the experiment with Veliparib + Palbociclib (first compound 0.6325 µM), 0.616. The relative viability with Veliparib + Palbociclib (first compound 2 µM) is 0.779; with Veliparib + Phenformin (first compound 0.06325 µM), 0.516; with Veliparib + Phenformin (first compound 0.2 µM) it was 0.594; in the experiment with Veliparib + Phenformin (first compound 0.6325 µM), 0.543; with Veliparib + Phenformin (first compound 2 µM), 0.481.

Consider NCI-H1793, for which the relative viability in experiment [1] (first compound 0.08 µM) was 0.343; in experiment [1] (first compound 0.253 µM), 0.751; in experiment [1] (first compound 0.8 µM), 0.688; in experiment [1] (first compound 2.53 µM) it was 0.705; in experiment [1] (first compound 8 µM), 0.598; with Veliparib + Luminespib (first compound 0.02 µM) it was 0.196. In addition, the relative viability was 0.174 in the experiment with Veliparib + Luminespib (first compound 0.06325 µM); 0.177 in the experiment with Veliparib + Luminespib (first compound 0.2 µM); 0.169 with Veliparib + Luminespib (first compound 0.6325 µM); 0.181 with Veliparib + Luminespib (first compound 2 µM); 0.31 in the experiment with Veliparib + Palbociclib (first compound 0.02 µM); 0.292 with Veliparib + Palbociclib (first compound 0.06325 µM). Also, the relative viability with Veliparib + Palbociclib (first compound 0.2 µM) was 0.336; with Veliparib + Palbociclib (first compound 0.6325 µM), 0.348; with Veliparib + Palbociclib (first compound 2 µM) it was 0.331; with Veliparib + Phenformin (first compound 0.02 µM) it was 0.392; with Veliparib + Phenformin (first compound 0.06325 µM) it was 0.384; with Veliparib + Phenformin (first compound 0.2 µM), 0.466. Moreover, the relative viability in the experiment with Veliparib + Phenformin (first compound 0.6325 µM) was determined as 0.329; in the experiment with Veliparib + Phenformin (first compound 2 µM) it was 0.361.

NCI-H1944: the relative viability in experiment [1] (first compound 0.253 µM) was 0.834; in experiment [1] (first compound 0.8 µM), 0.86; in experiment [1] (first compound 2.53 µM) it was 0.817; in experiment [1] (first compound 8 µM), 0.701; with Veliparib + Luminespib (first compound 0.02 µM), 0.698; with Veliparib + Luminespib (first compound 0.06325 µM) it was 0.618. Also, the relative viability with Veliparib + Luminespib (first compound 0.2 µM) was 0.633; in the experiment with Veliparib + Luminespib (first compound 0.6325 µM), 0.613; in the experiment with Veliparib + Luminespib (first compound 2 µM) it was 0.657; with Veliparib + Palbociclib (first compound 0.02 µM), 0.302; with Veliparib + Palbociclib (first compound 0.06325 µM), 0.348; with Veliparib + Palbociclib (first compound 0.2 µM), 0.355. Besides, the relative viability in the experiment with Veliparib + Palbociclib (first compound 0.6325 µM) came out at 0.324; in the experiment with Veliparib + Palbociclib (first compound 2 µM) it was 0.329; with Veliparib + Phenformin (first compound 0.02 µM), 0.211; with Veliparib + Phenformin (first compound 0.06325 µM) it was 0.188; in the experiment with Veliparib + Phenformin (first compound 0.2 µM), 0.207; with Veliparib + Phenformin (first compound 0.6325 µM) it was 0.197. In addition, in the experiment with Veliparib + Phenformin (first compound 2 µM), the relative viability amounted to 0.204.

For the cell line NCI-H1734, the relative viability came out at 1.14 in experiment [1] (first compound 0.253 µM); 1.07 in experiment [1] (first compound 0.8 µM); 1.04 in experiment [1] (first compound 2.53 µM); 0.916 in experiment [1] (first compound 8 µM); 0.197 with Veliparib + Luminespib (first compound 0.02 µM); 0.209 with Veliparib + Luminespib (first compound 0.06325 µM). In addition, the relative viability with Veliparib + Luminespib (first compound 0.2 µM) turned out to be 0.211; with Veliparib + Luminespib (first compound 0.6325 µM) it was 0.232; with Veliparib + Luminespib (first compound 2 µM), 0.233; with Veliparib + Palbociclib (first compound 0.06325 µM) it was 0.32; with Veliparib + Palbociclib (first compound 0.2 µM) it was 0.351; with Veliparib + Palbociclib (first compound 0.6325 µM) it was 0.323. For the same cell line, the relative viability with Veliparib + Palbociclib (first compound 2 µM) was found to be 0.349; in the experiment with Veliparib + Phenformin (first compound 0.02 µM), 0.358; with Veliparib + Phenformin (first compound 0.06325 µM) it was 0.379; with Veliparib + Phenformin (first compound 0.2 µM), 0.383; in the experiment with Veliparib + Phenformin (first compound 0.6325 µM), 0.33; in the experiment with Veliparib + Phenformin (first compound 2 µM), 0.455.

Consider H3255, for which the relative viability came out at 0.184 in experiment [1] (first compound 0.08 µM); 0.247 in experiment [1] (first compound 0.253 µM); 0.221 in experiment [1] (first compound 0.8 µM); 0.238 in experiment [1] (first compound 2.53 µM); 0.226 in experiment [1] (first compound 8 µM); 0.698 with Veliparib + Luminespib (first compound 0.02 µM). For the same cell line, the relative viability came to 0.717 in the experiment with Veliparib + Luminespib (first compound 0.06325 µM); 0.778 with Veliparib + Luminespib (first compound 0.2 µM); 0.894 with Veliparib + Luminespib (first compound 0.6325 µM); 0.813 with Veliparib + Luminespib (first compound 2 µM); 0.344 in the experiment with Veliparib + Palbociclib (first compound 0.02 µM); 0.309 with Veliparib + Palbociclib (first compound 0.06325 µM). Besides, the relative viability amounted to 0.298 with Veliparib + Palbociclib (first compound 0.2 µM); 0.304 in the experiment with Veliparib + Palbociclib (first compound 0.6325 µM); 0.358 with Veliparib + Palbociclib (first compound 2 µM); 0.365 with Veliparib + Phenformin (first compound 0.02 µM); 0.367 with Veliparib + Phenformin (first compound 0.06325 µM); 0.36 with Veliparib + Phenformin (first compound 0.2 µM). The values for the relative viability in the experiment with Veliparib + Phenformin (first compound 0.6325 µM) and in the experiment with Veliparib + Phenformin (first compound 2 µM) were 0.322 and 0.329, respectively.

The record behind these values is the supplement of paper PMC10307832.
